The structures appear in SMILES notation.

Data on one compound can be found in patent publication US20260283946A1, “PHARMACEUTICAL DRY POWDER COMPOSITION AND METHODS FOR TREATING RESPIRATORY TRACT INFECTIONS” (priority 2022, published 2026).

For the assay, the system named is Vero cells. The assay can be described thus: Luciferase assay of total cellular ATP. Type of assay: cell-based, African green monkey. Conditions: 5 μM ouabain, 0.4, 0.8 and 1.1% BREATHOX POWDER, 1 h. How it is done:
Then to see the available ATP a luciferase assay was performed. Changes of the total concentration of ATP in Vero cells exposed to increasing concentrations of NaCl for 1 or 72 h was determined by plate microfluorimetry recordings with the FlexStation III microplate reader and the ATP Assay Kit (SIGMA-ALDRICH) following the manufacturer's instructions. The kit provides extremely sensitive results, detecting ATP release of 10-100 mammalian cells/well, based on the firefly luciferase-catalyzed oxidation of D-luciferin in the presence of ATP, which the amount of ATP is quantified by the amount of light (hv) produced. Recordings of the luminescence intensity of 5×10^4 cells in black clear bottom of 96 wells plates were acquired at rest (point 0 h), 1 h, 24 h and 72 h after NaCl challenge (depolarizing agent).
In order to test whether the reduced level of ATP was caused by the increased activity of Na+/K+ ATPase transporter, Vero cells were treated with 0.4, 0.8 and 1.1% of BREATHOX® POWDER in presence or absence of 5 μM ouabain (Na+/K+ ATPase transporter inhibitor). Changes in total ATP concentration in Vero cells exposed to increasing concentrations of BREATHOX® POWDER with or without 5 μM ouabain for 1 hour was determined by plate microfluorimetry recordings with the FlexStation III microplate reader and the ATP Assay Kit (SIGMA-Aldrich) following the manufacturer's instructions. […]

As to `C[C@@H]1O[C@@H](O[C@H]2C[C@@H](O)[C@]3(CO)[C@H]4[C@H](O)C[C@]5(C)[C@@H](C6=CC(=O)OC6)CC[C@]5(O)[C@@H]4CC[C@]3(O)C2)[C@H](O)[C@H](O)[C@H]1O` [ouabain], the “decrease in ATP level caused by BREATHOX POWDER” value was “significantly reversed”.
